# From article PMC8037814, “Polymorphic Characterization, Pharmacokinetics, and Anti-Inflammatory Activity of Ginsenoside Compound K Polymorphs” (Molecules, 2021)
# “And” between values parts separate entries of the source, which are not always exact repeats. Identical values can stand only once.
# Legend:
# [1] = Pharmacokinetics after oral administration of CK polymorphs in rats (20 mg/kg); format: in vivo, Sprague-Dawley rats; conditions: p.o. 20 mg/kg, individual rats 1-3
# Protocol: All samples were analyzed with a triple quadrupole LC-MS/MS (API 4000 LC-MS/MS, AB Sciex, Framingham, MA, USA) coupled with an Agilent 1200 HPLC system (Agilent Technologies, Palo Alto, CA, USA). The MS was equipped with an electrospray system (ESI). The N2 gas temperature and ion-spray voltage were set to 550 °C and 4.5 kV, respectively. CK was measured in multiple reaction monitoring (MRM) mode using a negative electrospray ionization source at m/z 667.4 → 621.2 for CK (CID 25.6 v) and m/z 271.2 → 228.8 for internal standard (IS, (E)-5-(4-fluorostyryl)-2-isopropylbenzene-1,3-diol, Welichem Biotech Inc., Wayburne Drive Burnaby, BC, Canada) (CID 28.3 v) with a dwell time of 0.1 s.
# Rats were divided randomly into 5 groups of six animals each (sex in half) and given 7 days to acclimatize to the facility before the experiments began. The four forms of CK were suspended in 0.5% sodium carboxymethyl cellulose (CMC-Na) solution and orally administered to rats at a dose of 20 mg/kg. A CK solution in a mixed solvent of dimethyl sulfoxide (DMSO)/castor oil/physiologic saline (3:5:92, v/v) was intravenously administered to the remaining group via the tail vein at a dose of 10 mg/kg. Blood samples were collected by retro-orbital puncture at the following times: 0.167, 0.333, 0.667, 1, 2, 3, 4, 6, 9, 12, and 24 h for the oral administration, and at 0.0083, 0.05, 0.133, 0.25, 0.5, 1, 2, 4, 6, and 9 h for the intravenous administration. Plasma samples were obtained by centrifuging a heparinized blood tube at 4000 rpm for 5 min and then stored at −70 °C until analysis.
# The procedure for drug extraction from plasma samples was as follows: 0.2 mL acetonitrile, 0.2 mL plasma sample, and 10 μL IS (1 µg/mL) were added into a 1.5 mL Eppendorf-type tube. This mixture was vortexed for 1 min and then treated with 0.8 mL of methyl tert-butyl ether (MTBE) to precipitate the plasma proteins. After a mechanical vortex for 1 min and subsequent centrifugation (4000 rpm, 5 min), 0.8 mL of the supernatant was transferred and blow-dried with N2 at 40 °C in a water bath. Finally, the residue was dissolved in 120 μL of mobile phase, and then 10 μL was subjected to HPLC for analysis. […] Intra- and inter-day precision and accuracy never exceeded 15% by analyzing six replicate samples.
# The CK pharmacokinetic parameters in rats, including the area under the curve (AUC(0–t) and AUC(0–∞)), mean residence time (MRT(0–t) and MRT(0–∞)), maximum concentration (Cmax), time to maximum concentration (Tmax), half-life (t1/2), apparent distribution volume (V), and total plasma clearance (CL), were derived from plasma concentration-time curves by using non-compartmental analysis (NCA) with DAS 2.0 software (Drug And Statistics, Mathematical Pharmacology Professional Committee of China, Shanghai, China). The absolute bioavailability (Fabs) was calculated from the dose-adjusted ratio of AUCp.o. to AUCi.v.. One-way analysis of variance (ANOVA) by SPSS 11.5 (SPSS Inc., Chicago, IL, USA) was conducted to compare the primary PK parameters.
# [2] = test system: carrageenan-induced acute paw inflammation; experiment: Paw swelling test induced by carrageenan in rats; format: in vivo, Sprague-Dawley rats; design: paw volume: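 right hind paw volume measured with a plethysmometer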; conditions: for paw volume / paw edema: mean±SD of 6 rats; for edema inhibition: versus model group
# Protocol: Rats were divided into 11 groups of six animals each (sex in half): the normal group, the model group, indomethacin group (1 mg/kg), and form I, II, III, IV groups (each form set 10 mg/kg and 20 mg/kg groups, respectively). Indomethacin and CK were ground and suspended in 0.5% CMC-Na solution. […] The same volume of saline was injected into the normal group. […] Paw edema and inhibitory rate were calculated as the following formula, and the differences among groups were compared with the t-test. Paw edema (%) = (Vn − V0)/V0 × 100%. Vn: paw volume at different time intervals after carrageenan injection. V0: paw volume before carrageenan injection. Inhibitory rate (%) = (Em − Ee)/Em × 100%. Em: paw edema of the model group. Ee: paw edema of the experimental group.
# [3] = DSC thermal analysis of CK polymorphs; format: physicochemical; conditions: 20 K/min from 20 to 400 °C, dry nitrogen flow
# Protocol: DSC measurements were performed on a DSC204 Phoenix calorimeter (NETZSCH, Selb, Germany) with a heating rate of 20 K/min from 20 to 400 °C. The dry nitrogen flow was about 50 mL/min. Data were analyzed using NETZSCH analysis software.
# [4] = Pharmacokinetics after oral administration of CK polymorphs in rats (20 mg/kg); format: in vivo, Sprague-Dawley rats; conditions: for Fabs (absolute bioavailability): p.o. 20 mg/kg vs i.v. 10 mg/kg, dose-adjusted AUC ratio
# [5] = 10 mg/kg p.o. qd 3 days, 3h after carrageenan, listed as From II
# [6] = 10 mg/kg p.o. qd 3 days, 4h after carrageenan, listed as From II
# [7] = 10 mg/kg p.o. qd 3 days, 5h after carrageenan, listed as From II
# [8] = 10 mg/kg p.o. qd 3 days, 6h after carrageenan, listed as From II
# [9] = 20 mg/kg p.o. qd 3 days, 3h after carrageenan, listed as From II
# [10] = 20 mg/kg p.o. qd 3 days, 4h after carrageenan
# [11] = 20 mg/kg p.o. qd 3 days, 4h after carrageenan, listed as From II
# [12] = 20 mg/kg p.o. qd 3 days, 5h after carrageenan, listed as From II
# [13] = 20 mg/kg p.o. qd 3 days, 6h after carrageenan, listed as From II
# [14] = female rats, p.o. 20 mg/kg, mean ± SD (n = 3), 20 mg/kg
# [15] = male rats, p.o. 20 mg/kg, mean ± SD (n = 3), 20 mg/kg
smiles,measurement,setting,value
"CC(C)=CCCC(C)(OC1OC(CO)C(O)C(O)C1O)C1CCC2(C)C1C(O)CC1C3(C)CCC(O)C(C)(C)C3CCC12C [Form II, 20-O-β-D-glucopyranosyl-20(S)-protopanaxadiol]",AUC(0-t),[1]; female rats,4.55773 µg·h/mL and 1.33842 µg·h/mL and 1.44559 µg·h/mL
same,AUC(0-∞),[1]; female rats,4.82311 µg·h/mL and 1.3714 µg·h/mL and 1.45917 µg·h/mL
same,CLz/F,[1]; female rats,4.15 L/h/kg and 14.58 L/h/kg and 13.71 L/h/kg
same,Cmax,[1]; female rats,0.777 µg/mL and 0.20965 µg/mL and 0.39212 µg/mL
same,Vz/F,[1]; female rats,23.70 L/kg and 62.95 L/kg and 49.26 L/kg
same,AUC(0-t),[1]; male rats,1.09534 µg·h/mL and 0.77436 µg·h/mL and 1.70347 µg·h/mL
same,AUC(0-∞),[1]; male rats,1.19851 µg·h/mL and 0.78014 µg·h/mL and 1.72692 µg·h/mL
same,CLz/F,[1]; male rats,16.69 L/h/kg and 25.64 L/h/kg and 11.58 L/h/kg
same,Cmax,[1]; male rats,0.18799 µg/mL and 0.19722 µg/mL and 0.31179 µg/mL
same,t1/2z,[1]; male rats,2.17 h and 2.39 h and 4.24 h
same,paw volume,"[2]; 10 mg/kg p.o. qd 3 days, 0h (before carrageenan), listed as From II",1.57±0.12
same,paw edema,[2]; [5],55.25±18.20%
same,paw volume,[2]; [5],2.41±0.16
same,edema inhibition,[2]; [5],14.03%
same,paw edema,[2]; [6],47.34±11.94%
same,paw volume,[2]; [6],2.30±0.14
same,edema inhibition,[2]; [6],24.09%
same,paw edema,[2]; [7],33.73±13.72%
same,paw volume,[2]; [7],2.08±0.12
same,edema inhibition,[2]; [7],34.84%
same,paw edema,[2]; [8],27.25±10.94%
same,paw volume,[2]; [8],1.98±0.08
same,edema inhibition,[2]; [8],30.70%
same,paw volume,"[2]; 20 mg/kg p.o. qd 3 days, 0h (before carrageenan), listed as From II",1.65±0.14
same,paw edema,[2]; [9],45.81±8.11%
same,paw volume,[2]; [9],2.40±0.15
same,edema inhibition,[2]; [9],28.72%
same,paw edema,[2]; [10],39.7 ± 6.4%
same,paw edema,[2]; [11],39.71±6.48%
same,paw volume,[2]; [11],2.30±0.14
same,edema inhibition,[2]; [10],36.3%
same,edema inhibition,[2]; [11],36.33%
same,paw edema,[2]; [12],29.62±8.06%
same,paw volume,[2]; [12],2.13±0.15
same,edema inhibition,"[2]; 20 mg/kg p.o. qd 3 days, 5h after carrageenan",42.7%
same,edema inhibition,[2]; [12],42.77%
same,paw edema,[2]; [13],23.59±8.59%
same,paw volume,[2]; [13],2.03±0.14
same,edema inhibition,"[2]; 20 mg/kg p.o. qd 3 days, 6h after carrageenan",40.0%
same,edema inhibition,[2]; [13],40.00%
same,DSC onset of the decomposition endotherm (thermodynamical stability),[3],263.1 °C
same,"maximum differences of the average Cmax and AUC(0–∞) values, form II compared to form IV","[4]; female groups, p.o. 20 mg/kg",2.1 fold
same,Fabs (absolute bioavailability),[4]; female rats,7.87%
same,t1/2z,"[4]; female rats, p.o. 20 mg/kg, individual rats 1-3, 20 mg/kg",3.96 h and 2.99 h and 2.49 h
same,AUC(0–t),[4]; [14],2.4472 ± 1.8285 µg·h/mL
same,AUC(0–∞),[4]; [14],2.55123 ± 1.96799 µg·h/mL and 2.5512 ± 1.968 µg·h/mL
same,CLz/F,[4]; [14],10.8 ± 5.79 L/h/kg
same,Cmax,[4]; [14],0.45959 ± 0.28963 µg/mL and 0.4596 ± 0.2896 µg/mL
same,Vz/F,[4]; [14],45.3 ± 20.0 L/kg
same,t1/2z,[4]; [14],3.15 ± 0.75 h and 3.2 ± 0.75 h
same,AUC(0-t),"[4]; female, Sprague-Dawley, rat, plasma, po, 20 mg/kg, female rats, p.o. 20 mg/kg, mean ± SD (n = 3)",2.45 ± 1.83 µg·h/mL
same,CL/F,"[4]; female, Sprague-Dawley, rat, plasma, po, 20 mg/kg, female rats, p.o. 20 mg/kg, mean ± SD (n = 3), read-out: CLz/F (converted)",10.8 L/h/kg
same,"maximum differences of the average Cmax and AUC(0–∞) values, form II compared to form IV","[4]; male groups, p.o. 20 mg/kg",1.6 fold
same,Fabs (absolute bioavailability),[4]; male rats,4.07%
same,Vz/F,"[4]; male rats, p.o. 20 mg/kg, individual rats 1-3, 20 mg/kg",102.18 L/kg and 80.31 L/kg and 39.93 L/kg
same,AUC(0–t),[4]; [15],1.19106 ± 0.4719 µg·h/mL and 1.1911 ± 0.4719 µg·h/mL
same,AUC(0–∞),[4]; [15],1.2352 ± 0.47445 µg·h/mL
same,CLz/F,[4]; [15],17.97 ± 7.11 L/h/kg and 18.0 ± 7.11 L/h/kg
same,Cmax,[4]; [15],0.23233 ± 0.06897 µg/mL and 0.2323 ± 0.06897 µg/mL
same,Vz/F,[4]; [15],74.14 ± 31.58 L/kg and 74.1 ± 31.6 L/kg
same,t1/2z,[4]; [15],2.93 ± 1.14 h and 2.9 ± 1.1 h
same,AUC(0-inf),"[4]; male, Sprague-Dawley, rat, plasma, po, 20 mg/kg, male rats, p.o. 20 mg/kg, mean ± SD (n = 3)",1.24 ± 0.474 µg·h/mL
